Laboratory results taken from article PMC8708032, “Fragment-Based Ligand Discovery Applied to the Mycolic Acid Methyltransferase Hma (MmaA4) from Mycobacterium tuberculosis: A Crystallographic and Molecular Modelling Study” (Pharmaceuticals, 2021).

Target: Hma (MmaA4) (Mycobacterium tuberculosis, UniProt Q79FX8)
Sequence (Q79FX8 4-301): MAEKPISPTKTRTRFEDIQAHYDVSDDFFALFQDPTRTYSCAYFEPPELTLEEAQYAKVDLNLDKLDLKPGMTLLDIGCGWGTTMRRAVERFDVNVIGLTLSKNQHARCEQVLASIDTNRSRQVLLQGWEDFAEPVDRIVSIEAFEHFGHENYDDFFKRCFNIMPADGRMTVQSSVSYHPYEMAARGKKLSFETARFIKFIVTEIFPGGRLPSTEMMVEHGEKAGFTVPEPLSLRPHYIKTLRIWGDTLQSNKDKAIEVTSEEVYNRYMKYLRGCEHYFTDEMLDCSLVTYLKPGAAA

## O=Cc1ccc2cccc(O)c2n1 [ZT726]
  X-ray crystallography, fragment soak, PanDDA: A second molecule of the ZT260 and ZT320 fragments is located at this position, as well as ZT726
